This is an account of results in patent US8993633B2, “Treatment of muscle disease characterized by insulin resistance” (Fate Therapeutics, (Canada) Inc., priority 2009, dated 2015).

The subject of one data set is GLUT4. Nature of the data set: GLUT4 localization by immunohistochemistry in mdx skeletal muscle. Type of data set: in vivo, mouse. The method, then: Studies were conducted in which metformin was administered to 4-week old mdx mice followed by extensive biochemical and morphologic analysis. The 4-week age group coincides with the early muscle degeneration/regeneration cycle and as such tests the ability of metformin to limit the degeneration process that begins at 3-4 weeks of age in this murine model of DMD. Metformin delivery was accomplished with the use of osmotic pump technology (Alzet). Alzet osmotic pumps are produced in a variety of formats ideal for use in murine models. The pumps were preloaded with metformin and then surgically implanted in a subcutaneous position suitable for long-term delivery, i.e. mid-scapular region. The Alzet osmotic pump was loaded with a metformin concentration selected to deliver 100 mg/kg/body wt per day, per standard diabetic treatment regimes, at 28 days of continuous infusion (Misra 2008). […] Given that metformin is an anti-hyperglycemic agent, blood glucose levels were measured. […]
Paraffin embedded muscles were section transversely (10 µm) and deparaffinized in descending alcohols, blocked with 3% BSA and permeabilized in 0.1% triton in PBS for 1 h at RT. […] Sections were then washed and mounted using fluorescence mounting medium (DAKO).

Data set [1] deals with mdx mice. Put plainly: H&E myofiber pathology and morphometry in mdx skeletal muscle. The note with it: for proportion of smaller myofibers (CSA<1500 μm^2): mdx-M. Type of data set: in vivo, mouse. The method, then:
(§1) Studies were conducted in which metformin was administered to 4-week old mdx mice followed by extensive biochemical and morphologic analysis. The 4-week age group coincides with the early muscle degeneration/regeneration cycle and as such tests the ability of metformin to limit the degeneration process that begins at 3-4 weeks of age in this murine model of DMD. Metformin delivery was accomplished with the use of osmotic pump technology (Alzet). Alzet osmotic pumps are produced in a variety of formats ideal for use in murine models. The pumps were preloaded with metformin and then surgically implanted in a subcutaneous position suitable for long-term delivery, i.e. mid-scapular region. The Alzet osmotic pump was loaded with a metformin concentration selected to deliver 100 mg/kg/body wt per day, per standard diabetic treatment regimes, at 28 days of continuous infusion (Misra 2008). A skilled person will appreciate that metformin could be given orally or by other routes of administration to humans but the osmotic pump is a convenient way to regulate administration over the 28 days of the murine model. Control animals were implanted with osmotic pumps containing saline. Given that metformin is an anti-hyperglycemic agent, blood glucose levels were measured.
(§2) Wild-type (C57BL-10) and mdx mice (C57BL/10ScSn-DMD/^mdx) were purchased from Jackson Laboratories (Bar Harbour, Me.) and housed in the University of Ottawa Animal Care Facility. Mice aged 3-4 weeks (peak necrotic stage) were surgically implanted with an (Alzet) osmotic mini-pump containing metformin or insulin for 14 and 28 days. Animals were randomly assigned to experimental or control treatment groups. Depending on the experiment, Mdx mice either received 100 mg/kg/d of metformin (Aldrich) (mdx-M) or 0.75 U of insulin (Sigma) (mdx-I). Drug concentrations were based on the effective dose range used in diabetic mouse models (Bailey and Puah, 1986; Cohen et al., 2004)
(§3) Control groups were surgically implanted with the mini-pump containing saline (wild type [WT-S], mdx-S). Following completion of drug treatment, animals were sacrificed by cervical dislocation and skeletal muscles (tibialis anterior TA, diaphragm DIA, gastrocnemius Gastro, and Soleus) were harvested. For analysis of biochemistry, skeletal muscles were snap frozen in liquid nitrogen. For preparation of paraffin sections skeletal muscles were fixed in formalin.
Muscle sections were rehydrated in xylene followed by descending alcohols (100%, 95%, 80%), incubated in Shandon Instant Hematoxylin (Fisher Scientific) for 3 mins, washed 1 min, incubated in Eosin (Fisher Scientific) for 3 mins and then dehydrated in ascending alcohols followed by incubation in xylene. Stained sections were mounted with permount (Fisher Scientific). Quantification of morphometric parameters was performed on ˜1000 fibers per muscle.

The next data set deals with AKT. Put plainly: AKT kinase activity in skeletal muscle of treated mdx mice. It counts as in vivo, mouse. The settings on record: for increase in AKT kinase activity compared to mdx-S control: metformin 100 mg/kg/day by osmotic pump. The protocol:
as §1
(§4) Wild-type (C57BL-10) and mdx mice (C57BL/10ScSn-DMD/^mdx) were purchased from Jackson Laboratories (Bar Harbour, Me.) and housed in the University of Ottawa Animal Care Facility. Mice aged 3-4 weeks (peak necrotic stage) were surgically implanted with an (Alzet) osmotic mini-pump containing metformin or insulin for 14 and 28 days. Animals were randomly assigned to experimental or control treatment groups. Depending on the experiment, Mdx mice either received 100 mg/kg/d of metformin (Aldrich) (mdx-M) or 0.75 U of insulin (Sigma) (mdx-I). […]
(§5) Muscle samples were homogenized and quantified for protein concentration using Brafford Assay. […] Incorporation of radioactivity was counted using liquid scintillation counter. […]

The next data set relates to GSK-3β. Nature of the data set: GSK-3β kinase activity in skeletal muscle of treated mdx mice. The settings on record: for reduction of GSK-3β activity compared to mdx-S control: metformin 100 mg/kg/day by osmotic pump. Type of data set: in vivo, mouse. The method, then: as §1, §4, §5
In another data set the test system is AMPK. Put plainly: AMPK kinase activity in skeletal muscle of treated mdx mice. Type of data set: in vivo, mouse. The settings on record: metformin 100 mg/kg/day by osmotic pump, 28 days. The method, then: as §1, with “measured. […]” for “measured.”
For data set [2] the following is noted: cited from earlier work.
The next data set concerns DGC. Put plainly: DGC component and utrophin protein levels and sarcolemmal distribution in mdx muscle. Type of data set: in vivo, mouse. The method, then:
as §1, §2, §3
Paraffin embedded muscles were section transversely (10 µm) and deparaffinized in descending alcohols, blocked with 3% BSA and permeabilized in 0.1% triton in PBS for 1 h at RT. Sections were then incubated in primary antibodies against GLUT4 (Chemicon), Laminin (Sigma), Utrophin, 13-Dystroglycan and γ-Sarcoglycan were purchased from Vector Laboratories. In order to amplify primary antibody signal the avidin/biotin complex technique was performed on muscle sections. As well primary mouse antibodies were diluted in M.O.M diluent (M.O.M. Basic Kit, Vector Laboratories). In brief, sections were incubated with primary antibody overnight at 4° C. then incubated in biotinylated secondary antibody for 30 mins at RT, followed by incubation in FITC-streptoavidin conjugated secondary antibody (Molecular Probes) for 1 h at RT. Sections were then washed and mounted using fluorescence mounting medium (DAKO).
Muscle samples were homogenized, lyzed and quantified for protein concentration using Brafford Assay. Equal concentrations of protein samples were resolved by 6-8% SDS-PAGE and transferred to nitrocellulose membranes. Primary antibodies against IRS, IRS^y941, IRS^S307, anti-MHC (clone MF20) were used at a dilution of 1:500. Rabbit polyclonal antibodies were detected using horseradish peroxidase-conjugated anti-rabbit at dilution of 1:5000. Immunoblots were developed using with Supersignal West Pico Chemiluminescence substrate.

For data set [3], the system named is mdx mice. Put plainly: Rotorod test of motor performance in mdx mice. Type of data set: in vivo, mouse. The settings on record: mdx mice treated 28 days, by the 4th trial; 15 rpm start, 0.1 rpm/s acceleration. The protocol:
Metformin treated mdx-mice display improved motor performance compared to saline-treated mdx-mice. Mice (mdx) 3-4 weeks of age were treated with metformin or saline for 28 days according to the protocol described above. At the end of the treatment phase, a rotorod test was performed, which was repeated daily for 3 consecutive days. The mice were 7-8 weeks of age when tested, thus young adults. The initial rotorod speed for each trial was 15 rpm with gradual acceleration at a rate of 0.1 rpm per second. Mean fall latency time refers to the average amount of time the mice could run on the rotating rod (seconds). As soon as the animals fell from the rod, the time was stopped. The average value shown represents the average of each trial (1-4) performed for 3 consecutive days. The rotorod test is a behavioural test of motor coordination or performance and fatigue resistance or exercise tolerance, where the earlier time points are essentially an adaptation to the rotorod.
On the technique in general: Falling from the rotarod earlier than controls is read as motor impairment.

For data set [4], the system named is mdx mice. Put plainly: Monitoring of blood glucose and adverse health effects during drug treatment of mdx mice. The note with it: metformin 100 mg/kg/day, throughout drug treatment. Type of data set: in vivo, mouse. The protocol: as §1
In data set [5] the test system is mdx mice. Put plainly: Glycogen deposition by periodic acid Schiff staining in mdx skeletal muscle. Type of data set: in vivo, mouse. The settings on record: TA muscle of mdx mice, metformin treatment, PAS staining. The protocol:
as §1, with “measured. […]” for “measured.”

Data set [6] deals with mdx mice. Put plainly: Evans blue dye uptake (sarcolemmal integrity) in mdx muscle. It counts as in vivo, mouse. The note with it: metformin-treated mdx, 28 days; untreated (MS) 42%. The method, then: as §2
To measure sarcolemmal integrity, treated and untreated mdx mice were injected intravenously through the dorsal tail vein with 50 ul/10 g of 1% Evans Blue Dye (EBD, Sigma) in sterilized phosphate-buffered saline (PBS 7.4). Skeletal muscle was harvested 6-8 hrs post-injection and prepared for immunofluorescence as previously described. To visualize sarcolemmal membrane, EBD infiltrated fibers sections were incubated in anti-laminin (Sigma) at 4° C. overnight and then mounted in fluorescent mounting medium (DAKO).

Where [7] appears, read: 28-day insulin delivery (0.75 U).
[8] abbreviates: immunoblot, compared to mdx-Saline control.
Where [9] appears, read: immunohistochemistry, mdx myofibers.

As to “insulin: insulin (Sigma), 0.75 U delivered by osmotic mini-pump to mdx mice (mdx-I)”, the GLUT4 localization result with GLUT4 (mdx mice following insulin treatment) was “remained localized in a perinuclear domain”. Further, the “fiber size variability and protection against degeneration (H&E)” value in the data set on mdx mice [1] (TA and DIA fibers of mdx-I) was “no reduction in fiber size variability and protection against degeneration”. The “number of centrally located nuclei” value with mdx mice [1] (mdx-I vs mdx-S) is given as “remained comparable”. For the same compound, in the data set on mdx mice [1] (mdx-I, in particular the DIA), the “fiber size distribution (morphometric analysis)” value is on record as “no overall change”. Moreover, in the data set with AKT (setting [7]), the AKT kinase activity entry is recorded as “no significant change”. Moreover, the GSK3β kinase activity result in the data set with GSK-3β (setting [7]) is “only marginal changes”.

Regarding `CN(C)C(=N)NC(=N)N` [Metformin, N,N-dimethylimidodicarbonimidicdiamide], the GLUT4 localization result with GLUT4 (TA muscle of mdx mice, metformin treatment) is listed as “restoration of GLUT4 protein to that observed in wild-type skeletal muscle”. Besides, the “elevation in AMPK kinase activity over baseline levels in mdx-S control” value with AMPK (DIA muscle) is recorded as 55%. Further, the “elevation in AMPK kinase activity over baseline levels in mdx-S control” value with AMPK (TA muscle) is 75%. For the same compound, in [2] (patients), the “incidence of lactic acidosis” value is given as “about 0.03 cases per 1000 patients years of treatment” and the “mortality risk of lactic acidosis” value was “about 0.015 per 1000 patient-years”. Further, the “gastrointestinal adverse effects, notably diarrhea” value in [2] (remit when the dosage is reduced) is on record as “less than 20 % of patients”. In addition, the utrophin protein levels entry with DGC (gastrocnemius, compared to mdx-Saline control) is recorded as “increased”. Besides, in the data set on DGC (setting [8]), the β-dystroglycan protein expression result was “increased” and the γ-sarcoglycan protein expression entry is reported as “increased”. Moreover, in the data set with DGC (setting [9]), the “sarcolemmal distribution of β-dystroglycan” value is recorded as “notable increase”, the “sarcolemmal distribution of γ-sarcoglycan” value is listed as “notable increase” and the “utrophin along the extrasynaptic sarcolemma” value is given as “robust increase”. Moreover, the “proportion of smaller myofibers (CSA<1500 μm^2)” value in the data set with mdx mice [1] (DIA, untreated 38%) amounted to 23%. Besides, the focal necrosis entry in the data set on mdx mice [1] (TA, DIA, gastrocnemius and soleus of mdx mice, 28-day metformin vs saline) was “significant decline in the focal necrosis”. The “proportion of smaller myofibers (CSA<1500 μm^2)” value with mdx mice [1] (TA, untreated 22%) amounted to 14%. Further, the “fibers displaying central nuclei” value in the data set on mdx mice [1] (mdx-M fibers after 28 days metformin, untreated mdx-S 55%) is on record as about 38%. The “rotorod running time (fall latency)” value in the data set on mdx mice [3] is “significant improvement in running time”. Besides, in the data set on mdx mice [4], the “hypoglycemia or adverse health effects” value is on record as “no evidence of hypoglycemia or adverse health effects”. In addition, the “increase in AKT kinase activity compared to mdx-S control” value in the data set with AKT (DIA muscle) is about 80%. The “increase in AKT kinase activity compared to mdx-S control” value with AKT (TA muscle) came out at 83%. Also, the “skeletal muscle glycogen content” value in the data set with mdx mice [5] is listed as “complete normalization of glycogen content”. Besides, in the data set with mdx mice [6], the “myofibers positively stained for EBD” value was determined as 22%. Moreover, in the data set with GSK-3β (DIA muscle), the “reduction of GSK-3β activity compared to mdx-S control” value was determined as 66%. Moreover, the “reduction of GSK-3β activity compared to mdx-S control” value with GSK-3β (TA muscle) was determined as 31%.
